Results as given in US20260308149A1, “NOVEL CARBOXAMIDE DERIVATIVES” (ANGELINI PHARMA S.P.A., priority 2023, published 2026).

target: T1, human Kv7.2 (Homo sapiens, UniProt O43526); experiment: activation (potentiation) of Kv7.2 current, SyncroPatch 384 electrophysiology in CHO cells stably expressing human Kv7.2; type: cell-based; settings: human Kv7.2 in CHO cells; in presence of 5.6 μM zinc pyrithione; % activation relative to 30 μM ML-213
T1 construct: expressed in transfected cells
Description: The potency of Kv7 potentiators was determined using the SyncroPatch 384 (Nanion) high throughput electrophysiology platform.
CHO cells stably expressing either human Kv7.2, Kv7.4 or Kv7.5/7.3 under a constitutive CMV promoter were used for these studies. Cells were maintained in F12 Hams+1 mM L-glutamine (Hyclone) supplemented with 10% FBS (Sigma), 0.3×NEAA (Non-essential Gamino-acids) and 400 ug/ml G418 at 37° C. in 5% CO2. Cells were cultured in T-225 flasks (Nunc) for 2-3 days to reach 85-95% confluence prior to electrophysiological recording.
Earle's balanced salt solution (in mM): 135 NaCl, 5.4 KCl, 5 Glucose, 2 CaCl2), 1 MgCl2, 5 HEPES, pH 7.4. Seal enhancer solution (in mM): 90 NaCl, 3 KCl, 35 CaCl2), 10 MgCl2, 10 HEPES, pH 7.4. Extracellular recording solution (in mM): 71 NaCl, 70 NMDG, 13 KCl. 5 Glucose, 2 CaCl2, 1 MgCl2, 10 HEPES, pH 7.4. Intracellular recording solution (in mM): 130 KF, 20 KCl, 4 EGTA, 10 HEPES, 2 EDTA, 0.01 Escin, pH 7.2.
Cells were harvested for electrophysiological recording upon reaching appropriate confluence. Cells were first washed in DPBS (Hyclone, Cat #SH30028.03) and then 2 ml of Accutase (MP Biomedicals #1000449) was added at 28° C. until ~90% of cells were suspended. F12 HAM's media+1 mM L-glutamine (Hyclone, SH30026.02) was then added to the flask to dilute the accutase. Cells were then triturated until a single cell suspension was achieved, a cell count was performed, and cells were centrifuged for 2 min. at 1,000 rpm. Media was then aspirated, and cells were resuspended in Earle's balanced salt solution to a concentration of 0.75×10^6 cells/ml and allowed to recover for 25 min at 10° C.
At the beginning of each assay, 20 μl of cell suspension was dispensed into each well of a multi-hole 384-well SyncroPatch chip by the onboard pipettor. Cell sealing was initiated, and seal enhancer solution was added to facilitate seal formation. Upon completion of sealing, cells were washed 3 times with extracellular recording solution and the assay voltage protocol was started. Human Kv7.2, Kv7.4 or Kv7.5/7.3 channels were evaluated using a voltage protocol in which cells were voltage-clamped at a holding potential of −60 mV. Potassium currents were continuously activated with a series of three voltage steps to −30 mV for 3 seconds, 40 mV for 1 second and −90 mV for 4 seconds with 12 seconds between successive voltage sweeps. Potassium currents were measured from the −90 mV repolarizing step. Baseline current was assessed for 3.5 minutes prior to the addition of 5.6 μM zinc pyrithione (1 μM for Kv7.4). Kv7.2, Kv7.4 or Kv7.5/7.3 current in the presence of zinc pyrithione was acquired over five minutes to allow channels to reach steady state activity prior to addition of test agents. Channel activity was monitored for three minutes preceding the addition of 30 μM ML-213 (3 minutes) to achieve maximum activation. 150 mM TEA with 10 μM XE-991 was applied for 2 minutes to measure the leak current during maximum inhibition of Kv7.2, Kv7.4 or Kv7.5/7.3 channels.
Data were collected on the SyncroPatch platform using PatchControl software (Nanion) and processed and analyzed using DataControl Software (Nanion). Percent activation was calculated from potassium current as follows: The average current for the 5 sweeps in the presence of zinc pyrithione immediately preceding test agent addition was taken as the ‘control’ data. Likewise, the average potassium current in the presence of test agents 5 sweeps immediately preceding addition of 30 μM ML-213 was determined for ‘drug’ data. The average potassium current 5 sweeps immediately prior to addition of 150 mM TEA+10 μM XE-991 was determined for ‘max activation’ data while average currents from 5 sweeps immediately following addition of TEA was determined for ‘max inhibition’ data. Percent activation for each of the 384-wells of a sealchip was calculated as ((‘drug’−‘max inhibition’)/(‘max activation’−‘max inhibition’))*100 with Pipeline Pilot (Accelrys). […]

T1 sequence (O43526 whole entry): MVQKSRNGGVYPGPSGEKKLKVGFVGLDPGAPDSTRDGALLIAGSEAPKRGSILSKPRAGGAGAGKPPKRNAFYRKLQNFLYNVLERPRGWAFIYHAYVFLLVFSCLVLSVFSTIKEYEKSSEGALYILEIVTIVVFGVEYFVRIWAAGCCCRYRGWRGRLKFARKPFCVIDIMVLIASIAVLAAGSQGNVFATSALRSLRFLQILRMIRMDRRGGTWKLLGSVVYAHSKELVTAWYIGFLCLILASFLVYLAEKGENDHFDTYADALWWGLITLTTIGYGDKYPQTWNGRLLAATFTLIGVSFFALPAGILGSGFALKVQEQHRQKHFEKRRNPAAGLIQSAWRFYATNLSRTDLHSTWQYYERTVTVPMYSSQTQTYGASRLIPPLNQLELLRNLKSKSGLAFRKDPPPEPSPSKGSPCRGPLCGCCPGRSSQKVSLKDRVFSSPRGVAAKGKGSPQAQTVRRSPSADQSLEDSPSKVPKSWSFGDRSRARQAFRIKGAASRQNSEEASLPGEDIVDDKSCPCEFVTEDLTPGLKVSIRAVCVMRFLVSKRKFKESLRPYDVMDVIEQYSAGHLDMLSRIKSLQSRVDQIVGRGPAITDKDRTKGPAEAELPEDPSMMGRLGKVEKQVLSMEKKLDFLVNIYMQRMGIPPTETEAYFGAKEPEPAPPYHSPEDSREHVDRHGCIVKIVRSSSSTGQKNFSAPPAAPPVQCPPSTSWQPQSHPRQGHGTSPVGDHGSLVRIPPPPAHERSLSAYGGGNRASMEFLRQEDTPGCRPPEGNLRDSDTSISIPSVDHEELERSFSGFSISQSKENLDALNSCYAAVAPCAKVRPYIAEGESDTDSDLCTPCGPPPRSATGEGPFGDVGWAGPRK

EC50 [nM] | Structure (SMILES)
320 | O=C(NCC1CCCC1)NCC1(c2cccc(Cl)c2)CCO1 (stereo not drawn) [Example 59, 1-[[2-(3-chlorophenyl)oxetan-2-yl]methyl]-3-(cyclopentylmethyl)urea]
1110 | CC#C[C@@H]1C[C@@H]1C(=O)NC[C@@]1(c2cccc(C#N)c2)CCO1 (mixture of isomers) [Example 137, (1SR,2RS)—N-[[(2S)-2-(3-cyanophenyl)oxetan-2-yl]methyl]-2-prop-1-ynyl-cyclopropanecarboxamide]
9420 | COc1cc(C(C)(CNC(=O)[C@H]2C[C@@H]2c2ccccc2)OC)ccn1 (mixture of isomers) [Example 52, (1S,2S)-N-[(2RS)-2-methoxy-2-(2-methoxy-4-pyridyl)propyl]-2-phenyl-cyclopropanecarboxamide]
340 | O=C(NC/C(=C/CO)c1cccc(Cl)c1)[C@H]1C[C@@H]1c1ccccc1 [Example 77, (1S,2S)—N-[(E)-2-(3-chlorophenyl)-4-hydroxy-but-2-enyl]-2-phenyl-cyclopropanecarboxamide]
40 | N#Cc1cccc([C@]2(CNC(=O)[C@H]3C[C@@H]3c3ccccc3)CCO2)c1 [Example 49, (1S,2S)-N-[[(2S)-2-(3-cyanophenyl)oxetan-2-yl]methyl]-2-phenyl-cyclopropanecarboxamide]
1980 | COC(C)(CNC(=O)NCCCc1ccccc1)c1cccc(Cl)c1 (stereo not drawn) [Example 32, 1-[2-(3-chlorophenyl)-2-methoxy-propyl]-3-(3-phenylpropyl)urea]
130 | CO[C@@](C)(CNC(=O)C1CC12CCOCC2)c1cccc(Cl)c1 (stereo partly drawn) [Example 84, N-[(2R)-2-(3-chlorophenyl)-2-methoxy-propyl]-6-oxaspiro[2.5]octane-2-carboxamide]
650 | N#CCO[C@H](CNC(=O)[C@H]1C[C@@H]1c1ccccc1)c1cccc(Cl)c1 [Example 70, (1S,2S)—N-[(2S)-2-(3-chlorophenyl)-2-(cyanomethoxy)ethyl]-2-phenyl-cyclopropanecarboxamide]
190 | O=C(NCC1(c2cccc(Cl)c2)CCO1)NC1CC2CCC1C2 (racemic) [Example 54, 1-[[2-(3-chlorophenyl)oxetan-2-yl]methyl]-3-[rac-(1S,2S,4R)-norbornan-2-yl]urea]
1120 | CO[C@@](C)(CNC(=O)[C@@H]1C[C@H]1C1CC1)c1cccc(Cl)c1 (mixture of isomers) [Example 79, (1RS,2SR)—N-[(2R)-2-(3-chlorophenyl)-2-methoxy-propyl]-2-cyclopropyl-cyclopropanecarboxamide]
4080 | N#Cc1cccc([C@]2(CNC(=O)C3CC34CCOCC4)CCO2)c1 (stereo partly drawn) [Example 106, N-[[(2S)-2-(3-cyanophenyl)oxetan-2-yl]methyl]-6-oxaspiro[2.5]octane-2-carboxamide]
2750 | O=C(NCC1(c2cccc(Cl)c2)CCO1)C1CC2(CCC2)C1 (stereo not drawn) [Example 64, N-[[2-(3-chlorophenyl)oxetan-2-yl]methyl]spiro[3.3]heptane-2-carboxamide]
4980 | CC[C@H]1C[C@@H]1C(=O)NC[C@@]1(c2cccc(C#N)c2)CCO1 (mixture of isomers) [Example 126, (1SR,2SR)—N-[[(2S)-2-(3-cyanophenyl)oxetan-2-yl]methyl]-2-ethyl-cyclopropanecarboxamide]
2340 | COC(C)(CNC(=O)NC1CCCC1)c1cccc(Cl)c1 (stereo not drawn) [Example 3, 1-[2-(3-chlorophenyl)-2-methoxy-propyl]-3-cyclopentyl-urea]
500 | Cc1ccc(C2CC2C(=O)NC[C@@]2(c3cccc(C#N)c3)CCO2)o1 (stereo partly drawn) [Example 133, N-[[(2S)-2-(3-cyanophenyl)oxetan-2-yl]methyl]-2-(5-methyl-2-furyl)cyclopropanecarboxamide]
1140 | N#Cc1cccc(C2(CNC(=O)[C@H]3C[C@@H]3c3ccccc3)COC2)c1 [Example 85, (1S,2S)—N-[[3-(3-cyanophenyl)oxetan-3-yl]methyl]-2-phenyl-cyclopropanecarboxamide]
2720 | O=C(NCC1(c2cccc(Cl)c2)CC1)NC1CCCC1 [Example 7, 1-[[1-(3-chlorophenyl)cyclopropyl]meth-yl]-3-cyclopentyl-urea]
5620 | O=C(NC(CO)C1(c2cccc(Cl)c2)CC1)[C@H]1C[C@@H]1c1ccccc1 (stereo partly drawn) [Example 86, (1S,2S)—N-[1-[1-(3-chlorophenyl)cyclopropyl]-2-hydroxy-ethyl]-2-phenyl-cyclopropanecarboxamide]
110 | O=C(NC[C@@]1(c2cccc(Cl)c2)CCO1)[C@H]1C[C@@H]1c1ccccc1 [Example 40, (1S,2S)-N-[[(2S)-2-(3-chlorophenyl)oxetan-2-yl]methyl]-2-phenyl-cyclopropanecarboxamide]
80 | O=C1CCC(CNC(=O)[C@H]2C[C@@H]2c2ccccc2)(c2cccc(Cl)c2)O1 (stereo partly drawn) [Example 66, (1S,2S)-N-[[2-(3-chlorophenyl)-5-oxo-tetrahydrofuran-2-yl]methyl]-2-phenyl-cyclopropanecarboxamide]
1700 | CC#C[C@H]1C[C@@H]1C(=O)NC[C@@]1(c2cccc(C#N)c2)CCO1 (mixture of isomers) [Example 134, (1SR,2SR)—N-[[(2S)-2-(3-cyanophenyl)oxetan-2-yl]methyl]-2-prop-1-ynyl-cyclopropanecarboxamide]
260 | O=C(NCC1(c2cccc(OC(F)F)n2)CCO1)C1CC12CCC(F)(F)CC2 (stereo not drawn) [Example 120, N-[[2-[6-(difluoromethoxy)-2-pyridyl]oxetan-2-yl]methyl]-6,6-difluoro-spiro[2.5]octane-2-carboxamide]
910 | N#Cc1cccc([C@]2(CNC(=O)C3CC4(C3)CC43CCC3)CCO2)c1 (stereo partly drawn) [Example 105, N-[[(2S)-2-(3-cyanophenyl)oxetan-2-yl]methyl]dispiro[3.0.3^5.1^4]nonane-7-carboxamide]
830 | O=C(N[C@H]1C[C@@H]2CC[C@H]1C2)N[C@H]1C[C@H](c2cccc(Cl)c2)C1 (racemic) [Example 38, 1-[3-(1r,3r)-(3-chlorophenyl)cyclobutyl]-3-[(1SR,2SR,4RS)-norbornan-2-yl]urea]
960 | N#Cc1cccc(C2(CNC(=O)CC3CCCCC3)CCC(=O)O2)c1 (stereo not drawn) [Example 90, N-[[2-(3-cyanophenyl)-5-oxo-tetrahydrofuran-2-yl]methyl]-2-cyclohexyl-acetamide]
9610 | CO[C@@](C)(CNC(=O)[C@H]1C[C@@H]1c1cccnc1)c1cccc(Cl)c1 (mixture of isomers) [Example 48, (1SR,2SR)-N-[(2R)-2-(3-chlorophenyl)-2-methoxy-propyl]-2-(3-pyridyl)cyclopropanecarboxamide]
1050 | CC(C)(C)CNC(=O)NCC1(c2cccc(Cl)c2)CCO1 (stereo not drawn) [Example 60, 1-[[2-(3-chlorophenyl)oxetan-2-yl]methyl]-3-(2,2-dimethylpropyl)urea]
620 | COC(C)(CNC(=O)CC1CCCCC1)c1cccc(Cl)c1 (stereo not drawn) [Example 19, N-[2-(3-chlorophenyl)-2-methoxy-propyl]-2-cyclohexyl-acetamide]
550 | COC(C)(CNC(=O)NCC1CCCC1)c1cccc(Cl)c1 (stereo not drawn) [Example 21, 1-[2-(3-chlorophenyl)-2-methoxy-propyl]-3-(cyclopentylmethyl)urea]

Structure (SMILES) | EC50 [nM]
O=C(NCC(OC1CCC1)c1cccc(Cl)c1)NC1C[C@H]2CC[C@@H]1C2 (mixture of isomers) [Example 46, 1-[2-(3-chlorophenyl)-2-(cyclobutoxy)ethyl]-3-[rac-(1R,4S)-norbornan-2-yl]urea] | 3350
